Source: patent US4207419A, “Prostaglandin derivatives” (American Home Products Corporation, priority 1977, dated 1980)

Assays:
[1] = Hypotensive effects in the anesthetized dog by the intravenous route; type: in vivo; conditions: average of two animals
Method: In the use of the compounds of the invention to produce hypotensive effects in warm-blooded animals, administration by the injectable route is preferred, preferably the intravenous route.
Thus in the anesthetized dog by the intravenous route the dose to produce hypotension is from about 1 μg/kg. to about 200 μg/kg. and preferably from about 10 μg/kg. to about 100 μg/kg. Using this procedure the following results were obtained:
*Average of two animals.

[2] = tested on: bronchoconstricting effects of a standard dose of acetylcholine; experiment: Bronchodilation upon aerosol inhalation, method of Rosenthale et al.; type: in vivo; conditions: guinea pig, i.v. acetylcholine producing ca. 30% bronchoconstriction
Text: In using the compounds of the invention to produce bronchodilating effects in warm-blooded animals, they may be administered in a variety of dosage forms: oral, injectable, and aerosol inhalation. Aerosol inhalation is a preferred method because of its rapid onset of action, great potency, and specificity of action. The particular dosage to obtain the bronchodilating effect will vary with the particular compound employed, the particular animal involved, and the degree of bronchodilation desired. In the guinea pig, by aerosol inhalation, the dose to produce bronchodilation is from about 0.15 micrograms to about 25 micrograms, and preferably from about 0.15 to about 15 micrograms. The bronchodilation produced upon aerosol inhalation can be observed by the method of Rosenthale et al., J. Pharmacol. Exp. Ther., 178, 541 (1971). Using this procedure the following results were obtained:
*The dose (i.v. of acetylcholine which produces a ca. 30%

Compound | Δ B.P. ([1]; dose 10 μg/kg.) | Δ B.P. ([1]; dose 100 μg/kg.) | Percent Inhibition of the bronchoconstricting effects of a standard dose of acetylcholine ([2]; dose 0.15 μg) | Percent Inhibition of the bronchoconstricting effects of a standard dose of acetylcholine ([2]; dose 1.50 μg) | Percent Inhibition of the bronchoconstricting effects of a standard dose of acetylcholine ([2]; dose 15 μg)
CC(C)(c1ccccc1)[C@H](O)CC[C@H]1CCC(=O)[C@@H]1CCCCCCC(=O)O (relative stereo) [dl-2β-[(3R)-3-Hydroxy-4,4-Dimethyl-4-Phenyl-1-Butyl]-5-Oxo-1α-Cyclopentane Heptanoic Acid] | -14 mm. Hg. | -26 mm. Hg. | – | – | –
CC(C)(Cc1ccccc1)[C@H](O)/C=C/[C@H]1CCC(=O)[C@@H]1CCCCCCC(=O)O (relative stereo) [dl-2β-[(3R)-3-Hydroxy-4,4-Dimethyl-5-Phenyl-trans-1-Pentenyl]-5-Oxo-Cyclopentane Heptanoic Acid] | – | – | 46% | 66% | 60%
CC(C)(c1ccccc1)[C@H](O)/C=C/[C@H]1CCC(=O)[C@@H]1C/C=C\CCCC(=O)O (relative stereo) [dl-7-{2β-[(3R)-3-Hydroxy-4,4-Dimethyl-4-Phenyl-trans-1-Butenyl]-5-Oxo-1α-Cyclopentyl}-cis-5-Heptenoic Acid] | -30 mm. Hg. | – | – | – | –
